Assay results published in patent US11214594B2, “Antimicrobial peptide having synergistic antibacterial effect with antibiotics on multidrug resistant bacteria, and use thereof” (priority 2016, dated 2022).
In brackets after ≈: the same amount, converted by molar mass. Read-outs that look alike come from different tables or passages of the source. Where a SMILES comes first, the peptide text is derived from it.

Tests used:
[1] = tested on: MDRAB 12035; test: microbe, parasite or virus in culture; type: cell-based, Acinetobacter baumannii; conditions: for Antibiotic MIC, compound alone: MDRAB 12035, no peptide
Method: (§1) For the antibacterial activity, a minimal inhibitory concentration (MIC) of a peptide in which fungus bodies were not split in an MH medium with sufficient nutrients was measured.
(§2) Specifically, the strains described in the following [Table 2] were purchased and diluted with an MH medium such that the number of bacteria was 2×10^6 colony-forming units (CFUs), 100 μl of each of the diluted strains was aliquoted into a 96-well microtiter plate, and then 100 μl of a peptide solution diluted with the MH medium (solution diluted stepwise at 2: 1) was added to each well.

[2] = tested on: A. baumannii; test: microbe, parasite or virus in culture; type: cell-based, Acinetobacter baumannii; conditions: for Antibiotic MIC, compound alone: no peptide; for MIC: Acinetobacter baumannii, read-out: Minimal inhibitory concentration MIC
Method: as §1, §2

[3] = tested on: S. typhimurium; test: microbe, parasite or virus in culture; type: cell-based, Salmonella typhimurium; conditions: Salmonella enterica, read-out: Minimal inhibitory concentration MIC
Method: as §1, §2

[4] = tested on: E. coli; test: MIC of antibiotic during combined treatment with antimicrobial peptide; type: cell-based, Escherichia coli; conditions: E. coli
Method: (§3) Thereafter, the MIC value of each mixed solution was determined by diluting the antibiotic solution with the MH medium, adding 50 μl of the diluted solution to each well, and performing an experiment even under a reversed condition.

[5] = tested on: S. aureus; test: microbe, parasite or virus in culture; type: cell-based, Staphylococcus aureus; conditions: Staphylococcus aureus, read-out: Minimal inhibitory concentration MIC
Method: as §1, §2

[6] = tested on: P. aeruginosa; test: microbe, parasite or virus in culture; type: cell-based, Pseudomonas aeruginosa; conditions: Pseudomonas aeruginosa, read-out: Minimal inhibitory concentration MIC
Method: as §1, §2

[7] = tested on: E. coli; test: microbe, parasite or virus in culture; type: cell-based, Escherichia coli
Method: as §1, §2

[8] = tested on: MDREC 1229; test: microbe, parasite or virus in culture; type: cell-based, Escherichia coli; conditions: for MIC: Escherichia coli, read-out: Minimal inhibitory concentration MIC; for Antibiotic MIC, compound alone: no peptide
Method: as §1, §2

[9] = tested on: B. subtilis; test: microbe, parasite or virus in culture; type: cell-based, Bacillus subtilis; conditions: Bacillus subtilis, read-out: Minimal inhibitory concentration MIC
Method: as §1, §2

[10] = tested on: A. baumannii; test: MIC of antibiotic during combined treatment with antimicrobial peptide; type: cell-based, Acinetobacter baumannii; conditions: A. baumannii
Method: as §3

[11] = tested on: S. epidermidis; test: microbe, parasite or virus in culture; type: cell-based, Staphylococcus epidermidis; conditions: Staphylococcus epidermidis, read-out: Minimal inhibitory concentration MIC
Method: as §1, §2

[12] = tested on: A. baumannii; test: MIC of antimicrobial peptide during combined treatment with antibiotic; type: cell-based, Acinetobacter baumannii
Method: Specifically, the strains described in [Table 2] were prepared and diluted with an MH medium such that the number of bacteria was 2×10^6 colony-forming units (CFUs) per 1 ml, 100 μl of the diluted strains was each aliquoted into a 96-well microtiter plate, and then 50 μl of a peptide solution diluted with the MH medium from the MIC value (solution diluted stepwise at 2: 1) was added to each well. Thereafter, the MIC value of each mixed solution was determined by diluting the antibiotic solution with the MH medium, adding 50 μl of the diluted solution to each well, and performing an experiment even under a reversed condition.

[13] = with Papiliocin 1 μg/ml (Conc./MIC 1/8)
[14] = with Papiliocin 2 μg/ml (Conc./MIC 1/4)
[15] = with Papiliocin 4 μg/ml (Conc./MIC 1/2)
[16] = with Papiliocin 8 μg/ml (Conc./MIC 1)
[17] = E. coli, compound alone (no peptide)
[18] = with PapMA-1 at 16 μg/ml (1/4 of peptide MIC)
[19] = with PapMA-2 at 16 μg/ml (1/4 of peptide MIC)

| Antibiotic MIC, compound alone [1] [µg/mL] | Antibiotic MIC, compound alone ([2]; A. baumannii) [µg/mL] | MIC Concentration of antibiotic [4, 13] [µg/mL] | MIC Concentration of antibiotic [4, 14] [µg/mL] | MIC Concentration of antibiotic [4, 15] [µg/mL] | MIC Concentration of antibiotic [4, 16] [µg/mL] | MIC Concentration of antibiotic [10, 13] [µg/mL] | MIC Concentration of antibiotic [10, 14] [µg/mL] | MIC Concentration of antibiotic [10, 15] [µg/mL] | MIC Concentration of antibiotic [10, 16] [µg/mL] | MIC ([3]; S. typhimurium, agent alone) [µg/mL] | MIC of antibiotic in mixture as fraction of the MIC of the antibiotic alone ([4]; with PapMA-1 at 16 μg/ml) | MIC value of antibiotic mixed with peptide [4, 18] [µg/mL] | MIC value of antibiotic mixed with peptide [4, 19] [µg/mL] | MIC of antibiotic in mixture as fraction of the MIC of the antibiotic alone ([4]; with PapMA-7 at 16 μg/ml) | MIC ([9]; B. subtilis, agent alone) [µg/mL] | MIC of antibiotic administered in combination with peptide ([10]; with PapMA-1 at 8 μg/ml) [µg/mL] | SMILES | Antibiotic MIC, compound alone ([8]; MDREC 1229) [µg/mL] | MIC of antibiotic administered in combination with peptide ([10]; with PapMA-7 at 8 μg/ml) [µg/mL] | MIC of antibiotic in combination as fraction of the MIC of the antibiotic alone ([10]; with PapMA-7 at 8 μg/ml) | other results |
| --- | --- | --- | --- | --- | --- | --- | --- | --- | --- | --- | --- | --- | --- | --- | --- | --- | --- | --- | --- | --- | --- |
| 32 | 32 | 64 | 64 | 64 | 0 | 32 | 16 | 16 | 0 | 64 (≈ 87.2 µM) | 1/64 | 2 | 0.5 | 1/512 | 0.25 (≈ 0.341 µM) | 0.5 | CC[C@H]1OC(=O)[C@H](C)[C@@H](O[C@H]2C[C@@](C)(OC)[C@@H](O)[C@H](C)O2)[C@H](C)[C@@H](O[C@@H]2O[C@H](C)C[C@H](N(C)C)[C@H]2O)[C@](C)(O)C[C@@H](C)C(=O)[C@H](C)[C@@H](O)[C@]1(C)O [Erythromycin, erythromycin, reference compound] |  |  |  | MIC ([2]; A. baumannii, agent alone): 32 µg/mL (≈ 43.6 µM); MIC of antibiotic in combination as fraction of the MIC of the antibiotic alone ([10]; with PapMA-1 at 8 μg/ml): 1/64; MIC ([11]; S. epidermidis, agent alone): 1 µg/mL (≈ 1.36 µM) |
|  |  |  |  |  |  |  |  |  |  |  |  |  |  |  |  |  | CC[C@H](C)[C@H](NC(=O)[C@H](CCCCN)NC(=O)[C@H](Cc1c[nH]c2ccccc12)NC(=O)[C@@H](N)CCCNC(=N)N)C(=O)N[C@@H](Cc1ccccc1)C(=O)N[C@@H](CCCCN)C(=O)N[C@@H](CCCCN)C(=O)N[C@H](C(=O)N1CCC[C@H]1C(=O)N[C@@H](CCCCN)C(=O)N[C@@H](CC(C)C)C(=O)N[C@@H](CC(C)C)C(=O)N[C@@H](Cc1c[nH]cn1)C(=O)N[C@@H](CCC(=O)O)C(=O)N[C@@H](Cc1ccccc1)C(=O)N[C@@H](CCCCN)C(=O)N[C@@H](CCCCN)C(=O)N[C@@H](Cc1ccccc1)C(N)=O)[C@@H](C)CC [Pap-MA-12] (H-RWKIFKKIPKLLHEFKKF-NH2; N-terminus assumed) |  |  |  | Peptide MIC, peptide alone [2]: 8 µg/mL; Peptide MIC during treatment with antibiotic ([12]; erythromycin 4 μg/ml (Conc./MIC 1/8)): 4 µg/mL; Peptide MIC during treatment with antibiotic ([12]; erythromycin 8 μg/ml (Conc./MIC 1/4)): 2 µg/mL; Peptide MIC during treatment with antibiotic ([12]; erythromycin 16 μg/ml (Conc./MIC 1/2)): 1 µg/mL; Peptide MIC during treatment with antibiotic ([12]; erythromycin 32 μg/ml (Conc./MIC 1)): 0 µg/mL; Peptide MIC during treatment with antibiotic ([12]; linezolid 32 μg/ml (Conc./MIC 1/8)): 2 µg/mL; Peptide MIC during treatment with antibiotic ([12]; linezolid 64 μg/ml (Conc./MIC 1/4)): 2 µg/mL; Peptide MIC during treatment with antibiotic ([12]; linezolid […] (Conc./MIC 1)): 0 µg/mL; Peptide MIC during treatment with antibiotic ([12]; linezolid […] (Conc./MIC 1/2)): 1 µg/mL; Peptide MIC during treatment with antibiotic ([12]; vancomycin 512 μg/ml (Conc./MIC 1/2)): 0.25 µg/mL; Peptide MIC during treatment with antibiotic ([12]; vancomycin 1024 μg/ml (Conc./MIC 1)): 0 µg/mL; Peptide MIC during treatment with antibiotic ([12]; vancomycin […] (Conc./MIC 1/4)): 0.25 µg/mL; Peptide MIC during treatment with antibiotic ([12]; vancomycin […] (Conc./MIC 1/8)): 2 µg/mL |
| 512 | 256 | 128 | 128 | 128 | 0 | 128 | 64 | 64 | 0 | 256 (≈ 759 µM) | 1/16 | 16 | 8 | 1/256 | 1 (≈ 2.96 µM) | 8 | CC(=O)NC[C@H]1CN(c2ccc(N3CCOCC3)c(F)c2)C(=O)O1 [Linezolid, linezolid, reference compound] | 512 | 1 | 1/256 | MIC of antibiotic in mixture as fraction of the MIC of the antibiotic alone ([4]; with PapMA-2 at 16 μg/ml): 1/32; MIC value of antibiotic mixed with peptide ([4]; with PapMA-7 at 16 μg/ml (1/2 of peptide MIC)): 1 µg/mL; MIC ([6]; P. aeruginosa, agent alone): > 1020 µg/mL; Antibiotic MIC, Linezolid [7, 17]: 256 µg/mL; MIC ([8]; MDREC 1229, agent alone): 512 µg/mL (≈ 1520 µM); MIC of antibiotic in combination as fraction of the MIC of the antibiotic alone ([10]; with PapMA-1 at 8 μg/ml): 1/32; MIC ([11]; S. epidermidis, agent alone): 1 µg/mL (≈ 2.96 µM) |

| SMILES | Antibiotic MIC, compound alone [1] [µg/mL] | Antibiotic MIC, compound alone ([2]; A. baumannii) [µg/mL] | MIC Concentration of antibiotic [4, 13] [µg/mL] | MIC Concentration of antibiotic [4, 14] [µg/mL] | MIC Concentration of antibiotic [4, 15] [µg/mL] | MIC Concentration of antibiotic [4, 16] [µg/mL] | MIC Concentration of antibiotic [10, 13] [µg/mL] | MIC Concentration of antibiotic [10, 14] [µg/mL] | MIC Concentration of antibiotic [10, 15] [µg/mL] | MIC Concentration of antibiotic [10, 16] [µg/mL] | MIC ([3]; S. typhimurium, agent alone) [µg/mL] | MIC of antibiotic in mixture as fraction of the MIC of the antibiotic alone ([4]; with PapMA-1 at 16 μg/ml) | MIC value of antibiotic mixed with peptide [4, 18] [µg/mL] | MIC value of antibiotic mixed with peptide [4, 19] [µg/mL] | MIC of antibiotic in mixture as fraction of the MIC of the antibiotic alone ([4]; with PapMA-7 at 16 μg/ml) | MIC ([9]; B. subtilis, agent alone) [µg/mL] | MIC of antibiotic administered in combination with peptide ([10]; with PapMA-1 at 8 μg/ml) [µg/mL] | Antibiotic MIC, compound alone ([8]; MDREC 1229) [µg/mL] | MIC of antibiotic administered in combination with peptide ([10]; with PapMA-7 at 8 μg/ml) [µg/mL] | MIC of antibiotic in combination as fraction of the MIC of the antibiotic alone ([10]; with PapMA-7 at 8 μg/ml) | other results |
| --- | --- | --- | --- | --- | --- | --- | --- | --- | --- | --- | --- | --- | --- | --- | --- | --- | --- | --- | --- | --- | --- |
| CN[C@H](CC(C)C)C(=O)N[C@H]1C(=O)N[C@@H](CC(N)=O)C(=O)N[C@H]2C(=O)N[C@H]3C(=O)N[C@H](C(=O)N[C@H](C(=O)O)c4cc(O)cc(O)c4-c4cc3ccc4O)[C@H](O)c3ccc(c(Cl)c3)Oc3cc2cc(c3O[C@@H]2O[C@H](CO)[C@@H](O)[C@H](O)[C@H]2O[C@H]2C[C@](C)(N)[C@H](O)[C@H](C)O2)Oc2ccc(cc2Cl)[C@H]1O [Vancomycin, vancomycin, reference compound] | >1024 | 1024 | 512 | 256 | 256 | 0 | 512 | 256 | 256 | 0 |  |  |  |  |  |  |  | >1024 | 2 | 1/512 | MIC ([1]; Acinetobacter baumannii, read-out: Minimal inhibitory concentration MIC): > 1020 µg/mL; MIC [2]: 1020 µg/mL (≈ 707 µM); MIC ([3]; TYPHIMURIUM): 512 µg/mL (≈ 353 µM); MIC [5]: 1 µg/mL (≈ 0.69 µM); MIC [6]: > 1020 µg/mL; Antibiotic MIC, Vancomycin [7, 17]: 1024 µg/mL; MIC ([7]; Escherichia coli, 16 h, read-out: Minimal inhibitory concentration MIC): 1020 µg/mL (≈ 707 µM); MIC [8]: > 1020 µg/mL; MIC [9]: 1 µg/mL (≈ 0.69 µM); MIC [11]: 1 µg/mL (≈ 0.69 µM) |
